Reference: ChEMBL document CHEMBL5154675, “Design, Synthesis, and Biological Evaluation of 1-(Indolizin-3-yl)ethan-1-ones as CBP Bromodomain Inhibitors for the Treatment of Prostate Cancer” (J Med Chem, 2022)
In brackets after ≈: the same amount, converted by molar mass. Activity calls are given as the source filed them. The rule behind the calls is not given here.

Assays:
[1] = AUC (0 to infinity) in Sprague-Dawley rat at 25 mg/kg, po measured up to 24 hrs; format: ADME, organism-based; design: time < 24 hrs, dose 25 mg/kg, route po; conditions: in vivo
[2] = biological target: T1, CREB-binding protein (Homo sapiens, UniProt Q92793); assay: Binding affinity to His6-tagged human CBP bromodomain (1081 to 1197 residues) expressed in Escherichia coli BL21 (DE3) assessed as dissociation constant by ITC analysis
Target sequence in this assay (Q92793 whole entry, the tested form may be a part): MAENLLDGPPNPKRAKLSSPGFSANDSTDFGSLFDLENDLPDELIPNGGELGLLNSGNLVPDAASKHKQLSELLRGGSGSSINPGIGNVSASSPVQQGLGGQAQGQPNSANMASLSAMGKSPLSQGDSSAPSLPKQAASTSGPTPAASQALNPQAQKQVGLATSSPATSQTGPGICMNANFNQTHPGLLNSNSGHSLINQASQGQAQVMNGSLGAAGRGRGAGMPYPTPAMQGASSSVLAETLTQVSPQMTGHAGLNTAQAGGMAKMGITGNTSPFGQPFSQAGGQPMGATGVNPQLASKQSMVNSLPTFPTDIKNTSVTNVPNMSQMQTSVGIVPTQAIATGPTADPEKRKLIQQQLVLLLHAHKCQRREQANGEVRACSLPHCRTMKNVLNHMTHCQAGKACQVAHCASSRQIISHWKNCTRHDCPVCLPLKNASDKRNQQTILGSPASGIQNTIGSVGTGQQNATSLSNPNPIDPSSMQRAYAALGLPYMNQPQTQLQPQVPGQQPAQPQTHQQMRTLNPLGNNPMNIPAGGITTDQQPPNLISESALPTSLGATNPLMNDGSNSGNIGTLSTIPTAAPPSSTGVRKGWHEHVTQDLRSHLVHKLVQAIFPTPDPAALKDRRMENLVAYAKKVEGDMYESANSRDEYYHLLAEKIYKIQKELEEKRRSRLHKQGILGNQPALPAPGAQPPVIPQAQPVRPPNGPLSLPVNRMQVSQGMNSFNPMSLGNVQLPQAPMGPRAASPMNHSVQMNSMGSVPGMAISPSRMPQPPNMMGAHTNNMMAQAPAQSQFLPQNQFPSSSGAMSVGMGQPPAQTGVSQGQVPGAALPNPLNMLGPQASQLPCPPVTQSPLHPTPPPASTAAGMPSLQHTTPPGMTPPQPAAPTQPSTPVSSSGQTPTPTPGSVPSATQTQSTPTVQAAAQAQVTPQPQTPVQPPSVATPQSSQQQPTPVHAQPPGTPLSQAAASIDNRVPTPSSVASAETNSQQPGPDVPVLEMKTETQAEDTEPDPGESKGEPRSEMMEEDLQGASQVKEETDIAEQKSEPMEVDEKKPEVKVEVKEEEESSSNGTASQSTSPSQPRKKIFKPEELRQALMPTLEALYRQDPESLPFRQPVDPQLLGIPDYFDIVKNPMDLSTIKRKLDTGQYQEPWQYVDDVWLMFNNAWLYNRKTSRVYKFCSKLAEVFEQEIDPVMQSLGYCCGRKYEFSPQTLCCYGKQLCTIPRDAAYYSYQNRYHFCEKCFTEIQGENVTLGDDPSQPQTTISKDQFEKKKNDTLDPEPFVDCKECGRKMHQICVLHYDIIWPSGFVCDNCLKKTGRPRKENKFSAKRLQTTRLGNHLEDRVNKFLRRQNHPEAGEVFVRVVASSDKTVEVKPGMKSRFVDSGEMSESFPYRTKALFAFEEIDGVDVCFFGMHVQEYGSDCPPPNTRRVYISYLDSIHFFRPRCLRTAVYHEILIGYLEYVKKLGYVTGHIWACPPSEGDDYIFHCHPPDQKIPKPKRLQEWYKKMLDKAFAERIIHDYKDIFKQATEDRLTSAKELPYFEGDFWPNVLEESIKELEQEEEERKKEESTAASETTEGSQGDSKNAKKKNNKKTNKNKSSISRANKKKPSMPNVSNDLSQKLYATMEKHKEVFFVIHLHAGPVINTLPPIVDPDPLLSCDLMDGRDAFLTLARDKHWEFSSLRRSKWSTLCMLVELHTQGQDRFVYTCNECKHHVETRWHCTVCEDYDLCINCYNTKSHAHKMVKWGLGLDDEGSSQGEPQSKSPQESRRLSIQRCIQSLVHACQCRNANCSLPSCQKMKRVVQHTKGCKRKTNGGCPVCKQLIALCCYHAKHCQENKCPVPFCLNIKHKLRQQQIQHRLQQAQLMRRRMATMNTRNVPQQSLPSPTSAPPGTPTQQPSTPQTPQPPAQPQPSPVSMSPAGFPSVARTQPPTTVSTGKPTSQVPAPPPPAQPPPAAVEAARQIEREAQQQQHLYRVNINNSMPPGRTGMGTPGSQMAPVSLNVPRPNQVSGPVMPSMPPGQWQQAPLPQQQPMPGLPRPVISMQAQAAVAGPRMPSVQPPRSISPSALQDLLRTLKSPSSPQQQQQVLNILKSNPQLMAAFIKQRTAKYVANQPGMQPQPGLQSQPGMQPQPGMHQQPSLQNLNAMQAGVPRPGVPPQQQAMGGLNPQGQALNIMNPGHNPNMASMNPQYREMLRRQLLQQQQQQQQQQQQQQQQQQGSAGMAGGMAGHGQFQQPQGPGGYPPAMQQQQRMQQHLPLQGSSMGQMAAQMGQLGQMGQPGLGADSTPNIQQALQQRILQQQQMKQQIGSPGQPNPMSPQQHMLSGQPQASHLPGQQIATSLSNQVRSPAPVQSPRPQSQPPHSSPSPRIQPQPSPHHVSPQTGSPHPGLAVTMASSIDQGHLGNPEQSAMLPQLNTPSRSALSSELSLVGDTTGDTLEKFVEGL

[3] = AUC (0 to infinity) in Sprague-Dawley rat at 5 mg/kg, iv administered as single dose measured up to 24 hrs; format: ADME, organism-based; design: time < 24 hrs, dose 5 mg/kg, route iv; conditions: in vivo, 24 h
[4] = Cmax in Sprague-Dawley rat at 5 mg/kg, iv administered as single dose measured up to 24 hrs; format: ADME, organism-based; design: time < 24 hrs, dose 5 mg/kg, route iv; conditions: in vivo
[5] = Half life in Sprague-Dawley rat at 25 mg/kg, po measured up to 24 hrs; format: ADME, organism-based; conditions: in vivo
[6] = Metabolic stability in rat liver microsomes assessed as parent compound remaining at 1 uM incubated for 45 mins in presence of NADPH by LC-MS/MS analysis; format: ADME, Microsome; conditions: read-out: Stability
[7] = Half life in human liver microsomes at 1 uM incubated for 45 mins in presence of NADPH by LC-MS/MS analysis; format: ADME, Microsome
[8] = Intrinsic clearance in rat liver microsomes at 1 uM incubated for 45 mins in presence of NADPH by LC-MS/MS analysis; format: ADME, Microsome; conditions: read-out: CLH
[9] = Hepatic clearance in rat liver microsomes at 1 uM incubated for 45 mins in presence of NADPH by LC-MS/MS analysis; format: ADME, Microsome
[10] = Apparent permeability across apical to basolateral side in human Caco-2 cells at 10 uM measured after 2 hrs by LC-MS/MS analysis; format: ADME, cell-based
[11] = Apparent permeability across basolateral to apical side in human Caco-2 cells at 10 uM measured after 2 hrs by LC-MS/MS analysis; format: ADME, cell-based
[12] = Efflux ratio of apparent permeability across basolateral to apical side over apical to basolateral side in human Caco-2 cells at 10 uM measured after 2 hrs by LC-MS/MS analysis; format: ADME, cell-based
[13] = Apparent permeability across apical to basolateral side in human Caco-2 cells assessed as drug recovery at 10 uM measured after 2 hrs by LC-MS/MS analysis; format: ADME, cell-based; conditions: read-out: Drug recovery
[14] = Apparent permeability across basolateral to apical side in human Caco-2 cells assessed as drug recovery at 10 uM measured after 2 hrs by LC-MS/MS analysis; format: ADME, cell-based; conditions: read-out: Drug recovery
[15] = test system: CWR22R; assay: Antiproliferative activity against human 22Rv1 cells assessed as cell growth inhibition by Celltiter-Glo assay; format: functional, cell-based
[16] = test system: CWR22R; assay: Inhibition of colony formation in human 22Rv1 cells at 1 to 4 uM incubated for 14 days by crystal violet staining based assay; format: functional, cell-based; conditions: dose 1-4 µM, time 14.0 day
[17] = test system: CWR22R; assay: Antimigratory activity against human 22Rv1 cells assessed as reduction in cell migration at 5 uM incubated for 48 hrs by bright-field microscopy based wound healing assay relative to control; format: functional; design: scale not given: the % may be the effect or the level left
[18] = test system: CWR22R; assay: Antitumor activity against human 22Rv1 cells xenografted in NOD SCID mouse assessed as tumor growth inhibition at 40 mg/kg, po administered 5 times per week via oral gavage for 14 days and measured every other day relative to control; format: functional; conditions: 22Rv1, 336 h, time 14 day, read-out: TGI
[19] = test system: CWR22R; assay: Antitumor activity against human 22Rv1 cells xenografted in NOD SCID mouse assessed as tumor growth inhibition at 40 mg/kg, ip administered once daily for 21 days and measured every other day relative to control; format: functional; conditions: 22Rv1, 504 h, time 21 day, read-out: TGI
[20] = Aqueous solubility of compound in PBS buffer at pH 7.2 measured after 24 hrs by HPLC analysis; format: physicochemical
[21] = test system: CWR22R; assay: Suppression of PSA gene expression in human 22Rv1 cells incubated for 48 hrs by dual luciferase reporter assay; format: functional, cell-based; conditions: dose 0-20 µM, DDE = dose-dependent effect
[22] = test system: CWR22R; assay: Suppression of full length Androgen receptor gene expression in human 22Rv1 cells incubated for 48 hrs by SYBR green dye-based qRT-PCR analysis; format: functional, cell-based; conditions: dose 0-20 µM, DDE = dose-dependent effect
[23] = test system: CWR22R; assay: Suppression of c-Myc protein expression in human 22Rv1 cells at 5 uM incubated for 48 hrs by Western blot analysis; format: functional, cell-based
[24] = test system: LNCaP C4-2B; assay: Suppression of Androgen receptor target-gene expression in human LNCaP C4-2B cells at 5 uM incubated for 48 hrs by SYBR green dye-based qRT-PCR analysis; format: functional, cell-based
[25] = test system: LNCaP C4-2B; assay: Suppression of c-Myc protein expression in human LNCaP C4-2B cells at 5 uM incubated for 48 hrs by Western blot analysis; format: functional, cell-based
[26] = test system: LNCaP; assay: Suppression of c-Myc protein expression in human LNCaP cells at 5 uM incubated for 48 hrs by Western blot analysis; format: functional, cell-based
[27] = biological target: T1, CREB-binding protein; conditions: dose 200.0 µM, time 30.0 min
[28] = biological target: PH-interacting protein (Homo sapiens) (UniProt Q8WWQ0); conditions: dose 200.0 µM, time 30.0 min
[29] = biological target: Bromodomain adjacent to zinc finger domain protein 2B (Homo sapiens) (UniProt Q9UIF8); conditions: dose 200.0 µM, time 30.0 min
[30] = biological target: Histone acetyltransferase KAT2B (Homo sapiens) (UniProt Q92831); conditions: dose 200.0 µM, time 30.0 min
[31] = biological target: Bromodomain-containing protein 4 (Homo sapiens, UniProt O60885); conditions: dose 200.0 µM, time 30.0 min
[32] = biological target: Bromodomain-containing protein 3 (Homo sapiens, UniProt Q15059); conditions: dose 200.0 µM, time 30.0 min
[33] = biological target: Bromodomain-containing protein 2 (Homo sapiens, UniProt P25440); conditions: dose 200.0 µM, time 30.0 min
[34] = in vitro; conditions: rat, liver microsomes
Description: Hepatic extraction ratio in rat liver microsomes at 1 uM incubated for 45 mins in presence of NADPH by LC-MS/MS analysis

Sequence of Histone acetyltransferase KAT2B (Homo sapiens) (Q92831 whole entry, looked up): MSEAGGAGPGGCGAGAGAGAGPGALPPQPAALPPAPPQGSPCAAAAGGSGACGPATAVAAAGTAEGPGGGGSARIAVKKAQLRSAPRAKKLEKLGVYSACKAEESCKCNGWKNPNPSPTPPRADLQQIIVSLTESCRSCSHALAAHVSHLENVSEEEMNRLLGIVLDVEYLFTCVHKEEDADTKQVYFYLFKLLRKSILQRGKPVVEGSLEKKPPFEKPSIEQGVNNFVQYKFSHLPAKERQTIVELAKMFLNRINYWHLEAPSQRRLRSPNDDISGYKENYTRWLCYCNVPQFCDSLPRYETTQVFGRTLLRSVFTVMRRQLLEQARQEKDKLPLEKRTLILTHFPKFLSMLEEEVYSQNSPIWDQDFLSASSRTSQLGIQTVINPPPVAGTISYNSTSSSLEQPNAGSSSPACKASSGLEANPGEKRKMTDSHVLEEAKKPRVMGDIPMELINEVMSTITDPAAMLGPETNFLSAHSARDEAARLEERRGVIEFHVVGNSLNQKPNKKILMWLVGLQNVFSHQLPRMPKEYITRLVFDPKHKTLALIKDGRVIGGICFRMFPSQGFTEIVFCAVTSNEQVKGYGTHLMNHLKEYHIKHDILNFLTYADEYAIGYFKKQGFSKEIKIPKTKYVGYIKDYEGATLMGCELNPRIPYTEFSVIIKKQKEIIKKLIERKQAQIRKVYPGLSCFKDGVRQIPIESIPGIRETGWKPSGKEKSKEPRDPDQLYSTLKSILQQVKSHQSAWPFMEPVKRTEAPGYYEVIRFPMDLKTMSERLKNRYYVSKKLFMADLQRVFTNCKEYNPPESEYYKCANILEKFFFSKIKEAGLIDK
Sequence of Bromodomain-containing protein 2 (P25440 whole entry, looked up): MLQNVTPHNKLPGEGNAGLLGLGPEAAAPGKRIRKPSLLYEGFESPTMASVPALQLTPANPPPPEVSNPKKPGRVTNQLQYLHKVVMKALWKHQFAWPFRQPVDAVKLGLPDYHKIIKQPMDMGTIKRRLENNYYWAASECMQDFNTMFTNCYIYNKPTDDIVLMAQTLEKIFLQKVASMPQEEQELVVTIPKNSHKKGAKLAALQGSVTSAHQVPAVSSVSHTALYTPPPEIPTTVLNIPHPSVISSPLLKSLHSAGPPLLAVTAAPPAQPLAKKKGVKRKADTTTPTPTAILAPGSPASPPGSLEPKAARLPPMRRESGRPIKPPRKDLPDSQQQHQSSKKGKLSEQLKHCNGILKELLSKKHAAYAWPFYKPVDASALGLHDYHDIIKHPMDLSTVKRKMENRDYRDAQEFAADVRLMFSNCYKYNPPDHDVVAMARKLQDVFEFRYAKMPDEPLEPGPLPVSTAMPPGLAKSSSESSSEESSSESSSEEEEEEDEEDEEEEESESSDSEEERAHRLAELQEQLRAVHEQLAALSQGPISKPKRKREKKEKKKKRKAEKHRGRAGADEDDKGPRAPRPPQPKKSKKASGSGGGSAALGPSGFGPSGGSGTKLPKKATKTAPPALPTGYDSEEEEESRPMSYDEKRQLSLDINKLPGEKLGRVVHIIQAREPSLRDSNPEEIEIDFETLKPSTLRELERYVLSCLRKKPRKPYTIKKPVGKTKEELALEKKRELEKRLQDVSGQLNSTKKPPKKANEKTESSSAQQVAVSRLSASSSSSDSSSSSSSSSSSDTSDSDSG
Sequence of Bromodomain-containing protein 3 (Q15059 2-726 limits assumed): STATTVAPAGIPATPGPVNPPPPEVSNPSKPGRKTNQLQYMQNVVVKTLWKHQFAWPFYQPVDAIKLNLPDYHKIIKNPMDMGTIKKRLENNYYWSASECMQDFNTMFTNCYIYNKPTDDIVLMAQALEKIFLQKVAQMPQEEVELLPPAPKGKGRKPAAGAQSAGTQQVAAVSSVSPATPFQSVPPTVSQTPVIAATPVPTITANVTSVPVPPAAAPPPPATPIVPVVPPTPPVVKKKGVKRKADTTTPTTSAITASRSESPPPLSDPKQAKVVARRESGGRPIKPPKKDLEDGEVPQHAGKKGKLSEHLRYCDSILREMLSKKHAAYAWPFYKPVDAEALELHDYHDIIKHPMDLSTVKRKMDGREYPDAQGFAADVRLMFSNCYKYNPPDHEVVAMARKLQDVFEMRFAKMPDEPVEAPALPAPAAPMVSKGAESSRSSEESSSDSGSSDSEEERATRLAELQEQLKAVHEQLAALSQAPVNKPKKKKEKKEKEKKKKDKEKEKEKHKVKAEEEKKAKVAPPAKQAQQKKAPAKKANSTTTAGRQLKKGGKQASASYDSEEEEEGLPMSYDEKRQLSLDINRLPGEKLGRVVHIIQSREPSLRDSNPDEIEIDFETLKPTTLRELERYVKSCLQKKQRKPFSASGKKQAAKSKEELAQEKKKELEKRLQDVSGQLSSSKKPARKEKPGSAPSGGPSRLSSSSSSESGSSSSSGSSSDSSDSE

COc1ccn2c(C(C)=O)cc(C(=O)Nc3cc(C(C)O)cc(-c4cnn(C5CC5)c4)c3F)c2c1 (centres undefined)
AUC(0-inf) [1]: 4820 ng·h/mL | Kd [2]: 58 nM | AUC [3]: 3715.71 ng·h/mL | Cmax [4]: 8110 ng/mL | half-life [5]: 1.66 h | remaining at 0.75 h, 1 µM [6]: 50.7% | half-life at 1 µM [7]: 0.355 h | CLint scaled at 1 µM [8]: 54.1 mL/min/kg | CLhep predicted at 1 µM [9]: 27.3 mL/min/kg | Papp A→B at 2 h, 10 µM [10]: 6.68 ×10⁻⁶ cm/s | Papp B→A at 2 h, 10 µM [11]: 11.8 ×10⁻⁶ cm/s | efflux ratio at 2 h, 10 µM [12]: 1.77 | recovery at 2 h, 10 µM [13]: 41.2% | recovery at 2 h, 10 µM [14]: 37.3% | IC50 [15]: 2040 nM | inhibition [16]: Active | Activity [17]: 60% | inhibition in vivo at 40 mg/kg [18]: 78% | inhibition in vivo at 40 mg/kg [19]: 88% | solubility at 24 h [20]: 20 µg/mL (≈ 42 µM) | Activity [21]: Dde | Activity [22]: Dde | Activity [23]: Active | Activity [24]: Active | Activity [25]: Active | Activity [26]: Active | ΔTm [27]: 11.5 °C | ΔTm [28]: 0 °C | ΔTm [29]: 0 °C | ΔTm [30]: -0.6 °C | ΔTm [31]: -1.5 °C | ΔTm [32]: -2.5 °C | ΔTm [33]: -0.8 °C | hepatic extraction ratio at 0.75 h, 1 µM [34]: 0.495
